In US12466827B2, “1,3,4-oxadiazole derivative compounds as histone deacetylase 6 inhibitor, and the pharmaceutical composition comprising the same” (CHONG KUN DANG PHARMACEUTICAL CORP., priority 2020, dated 2025):

Key:
human recombinant HDAC1 = biological target: T1, human recombinant HDAC1 (Homo sapiens, UniProt Q13547); test: In vitro HDAC enzyme activity inhibition assay (HDAC1); format: biochemical; details: Fluor de Lys-SIRT1 substrate 10 μM, 30° C., 60 minutes, fluorescence
T1 construct: purchased Enzo Life Sciences, Inc. BML-SE456
Description: (§1) In order to confirm the selectivity of the compounds represented by Chemical Formula I of the present invention to HDAC6 through HDAC1 and HDAC6 enzyme activity inhibition experiments, a comparison experiment was performed using the material that has already been developed as a control group.
(§2) HDAC enzyme activity was measured using the HDAC Fluorimetric Drug Discovery Kit (Enzo Life Sciences, Inc., BML-AK511, 516). For the HDAC1 enzyme activity test, human recombinant HDAC1 (BML-SE456) was used as an enzyme source and Fluor de Lys-SIRT1 (BNL-KI177) was used as a substrate. After dispensing 5-fold diluted compounds into a 96-well plate, 0.3 μg of enzyme and 10 μM substrate were added to each well of the plate and allowed to react at 30° C. for 60 minutes. Next, Fluor de Lys Developer II (BML-KI176) was added and reacted for 30 minutes to complete the reaction, and then the fluorescence values (Ex 360, Em 460) were measured using a multi-plate reader (Flexstation 3, Molecular Device). The HDAC6 enzymes were tested using human recombinant HDAC6 (382180) from Calbiochem Inc., according to the same protocol as the HDAC1 enzyme activity test method. With respect to the final result values, respective IC50 values were calculated using GraphPad Prism 4.0 program, and results thereof were summarized in Table 4 below.

human recombinant HDAC6 = biological target: T2, human recombinant HDAC6 (Homo sapiens, UniProt Q9UBN7); test: In vitro HDAC enzyme activity inhibition assay (HDAC6); format: biochemical; details: for HDAC6 selectivity (fold): HDAC6 over HDAC1; for IC50: same protocol as the HDAC1 test, human recombinant HDAC6 (Calbiochem)
T2 construct: purchased Calbiochem Inc. 382180
T2 sequence (Q9UBN7 1-1215): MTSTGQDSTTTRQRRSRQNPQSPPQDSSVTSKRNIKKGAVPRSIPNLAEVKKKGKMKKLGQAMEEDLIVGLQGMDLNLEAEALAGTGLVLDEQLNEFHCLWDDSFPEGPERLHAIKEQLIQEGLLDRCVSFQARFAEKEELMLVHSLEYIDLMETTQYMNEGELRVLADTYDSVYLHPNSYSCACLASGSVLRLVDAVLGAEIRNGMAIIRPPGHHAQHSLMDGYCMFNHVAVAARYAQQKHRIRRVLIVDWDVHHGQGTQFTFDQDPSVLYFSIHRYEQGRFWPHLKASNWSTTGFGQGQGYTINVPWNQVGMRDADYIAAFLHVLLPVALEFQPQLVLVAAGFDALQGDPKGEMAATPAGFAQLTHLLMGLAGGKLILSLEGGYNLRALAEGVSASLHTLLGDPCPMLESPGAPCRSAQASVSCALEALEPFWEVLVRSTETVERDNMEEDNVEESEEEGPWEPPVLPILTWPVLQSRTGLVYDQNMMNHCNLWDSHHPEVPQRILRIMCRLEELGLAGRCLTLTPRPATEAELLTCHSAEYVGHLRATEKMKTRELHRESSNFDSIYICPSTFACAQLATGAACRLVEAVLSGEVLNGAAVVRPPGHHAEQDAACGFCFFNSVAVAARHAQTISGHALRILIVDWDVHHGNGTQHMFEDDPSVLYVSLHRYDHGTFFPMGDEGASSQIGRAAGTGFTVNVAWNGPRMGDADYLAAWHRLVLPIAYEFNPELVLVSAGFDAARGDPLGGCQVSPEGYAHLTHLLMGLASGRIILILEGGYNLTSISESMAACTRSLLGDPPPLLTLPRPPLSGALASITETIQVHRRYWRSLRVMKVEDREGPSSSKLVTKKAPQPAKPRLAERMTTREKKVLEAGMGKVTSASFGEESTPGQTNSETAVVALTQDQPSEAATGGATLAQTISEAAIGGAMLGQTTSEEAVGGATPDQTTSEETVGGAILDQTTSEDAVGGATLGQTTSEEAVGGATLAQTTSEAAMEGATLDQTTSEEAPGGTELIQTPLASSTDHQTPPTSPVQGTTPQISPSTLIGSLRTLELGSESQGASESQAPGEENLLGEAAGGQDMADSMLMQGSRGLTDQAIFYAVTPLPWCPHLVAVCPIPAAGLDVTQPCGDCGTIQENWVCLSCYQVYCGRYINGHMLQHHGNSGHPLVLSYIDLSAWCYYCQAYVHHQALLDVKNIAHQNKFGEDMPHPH
Description: as §1, §2

T1 sequence (Q13547 whole entry): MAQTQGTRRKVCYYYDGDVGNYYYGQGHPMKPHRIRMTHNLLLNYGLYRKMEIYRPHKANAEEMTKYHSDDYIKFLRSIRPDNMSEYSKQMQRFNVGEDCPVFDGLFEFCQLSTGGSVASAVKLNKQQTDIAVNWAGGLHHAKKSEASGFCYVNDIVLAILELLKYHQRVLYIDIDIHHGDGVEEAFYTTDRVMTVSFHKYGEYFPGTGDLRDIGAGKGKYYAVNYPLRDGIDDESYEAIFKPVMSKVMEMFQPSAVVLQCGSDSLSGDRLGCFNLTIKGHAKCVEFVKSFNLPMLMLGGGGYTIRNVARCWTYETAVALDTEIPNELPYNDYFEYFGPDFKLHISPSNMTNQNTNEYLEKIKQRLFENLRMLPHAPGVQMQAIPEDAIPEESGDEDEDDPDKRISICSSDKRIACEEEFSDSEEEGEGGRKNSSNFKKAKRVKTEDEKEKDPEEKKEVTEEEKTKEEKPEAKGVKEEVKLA

| SMILES | IC50 (human recombinant HDAC1) [nM] | HDAC6 selectivity (fold) (human recombinant HDAC6) | IC50 (human recombinant HDAC6) [nM] |
| --- | --- | --- | --- |
| CN(C)C(=O)N1CCC(S(=O)(=O)N(Cc2cn3ccc(-c4nnc(C(F)F)o4)cc3n2)c2cccc(F)c2)CC1 [Compound 4253, 4—(N-((7-(5-(difluoromethyl)-1,3,4-oxadiazol-2-yl)imidazo[1,2-a]pyridin-2-yl)methyl)-N-(3-fluorophenyl)sulfamoyl)-N, N-dimethylpiperidine-1-carboxamide] | > 50000 | 503 | 99.4 |
| O=S(=O)(C1CCN(c2ccccn2)CC1)N(Cc1cn2ccc(-c3nnc(C(F)F)o3)cc2n1)c1cccc(F)c1 [Compound 4254, N-((7-(5-(difluoromethyl)-1,3,4-oxadiazol-2-yl)imidazo[1,2-a]pyridin-2-yl)methyl)-N-(3-fluorophenyl)-1-(pyridin-2-yl)piperidine-4-sulfonamide] | > 50000 | 430 | 116 |
| O=S(=O)(C1CCN(c2ncccn2)CC1)N(Cc1cn2ccc(-c3nnc(C(F)F)o3)cc2n1)c1cccc(F)c1 [Compound 4255, N-((7-(5-(difluoromethyl)-1,3,4-oxadiazol-2-yl)imidazo[1,2-a]pyridin-2-yl)methyl)-N-(3-fluorophenyl)-1-(pyrimidin-2-yl)piperidine-4-sulfonamide] | > 50000 | 463 | 108 |
| O=S(=O)(N1CCN(C2CCC2)CC1)N(Cc1cn2ccc(-c3nnc(C(F)F)o3)cc2n1)c1ccccc1 [Compound 4260, 4-cyclobutyl-N-((7-(5-(difluoromethyl)-1,3,4-oxadiazol-2-yl)imidazo[1,2-a]pyridin-2-yl)methyl)-N-phenylpiperazine-1-sulfonamide] | > 50000 | 573 | 87.3 |
| O=S(=O)(N1CCN(C2CCCCC2)CC1)N(Cc1cn2ccc(-c3nnc(C(F)F)o3)cc2n1)c1ccccc1 [Compound 4262, 4-cyclohexyl-N-((7-(5-(difluoromethyl)-1,3,4-oxadiazol-2-yl)imidazo[1,2-a]pyridin-2-yl)methyl)-N-phenylpiperazine-1-sulfonamide] | > 50000 | 167 | 299 |
| O=S(=O)(N1CCN(C2CCOCC2)CC1)N(Cc1cn2ccc(-c3nnc(C(F)F)o3)cc2n1)c1ccccc1 [Compound 4263, N-((7-(5-(difluoromethyl)-1,3,4-oxadiazol-2-yl)imidazo[1,2-a]pyridin-2-yl)methyl)-N-phenyl-1-(tetrahydro-2H-pyran-4-yl)piperazine-1-sulfonamide] | > 50000 | 397 | 126 |
| O=S(=O)(N1CCN(C2CCC(F)(F)CC2)CC1)N(Cc1cn2ccc(-c3nnc(C(F)F)o3)cc2n1)c1ccccc1 [Compound 4264] | > 50000 | 246 | 203 |
| O=C(C1CCC1)N1CCN(S(=O)(=O)N(Cc2cn3ccc(-c4nnc(C(F)F)o4)cc3n2)c2ccccc2)CC1 [Compound 4268, 4-(cyclobutanecarbonyl)-N-((7-(5-(difluoromethyl)-1,3,4-oxadiazol-2-yl)imidazo[1,2-a]pyridine-2-yl)methyl)-N-phenylpiperazine-1-sulfonamide] | > 50000 | 389 | 129 |
| O=C(C1COC1)N1CCN(S(=O)(=O)N(Cc2cn3ccc(-c4nnc(C(F)F)o4)cc3n2)c2ccccc2)CC1 [Compound 4269, N-((7-(5-(difluoromethyl)-1,3,4-oxadiazol-2-yl)imidazo[1,2-a]pyridin-2-yl)methyl)-4-(oxetan-3-carbonyl)-N-phenylpiperazine-1-sulfonamide] | > 50000 | 259 | 193 |

Next, values leading:

| IC50 (human recombinant HDAC1) [nM] | HDAC6 selectivity (fold) (human recombinant HDAC6) | IC50 (human recombinant HDAC6) [nM] | SMILES |
| --- | --- | --- | --- |
| > 50000 | 630 | 79.4 | CN1CCN(S(=O)(=O)N(Cc2cn3ccc(-c4nnc(C(F)F)o4)cc3n2)c2ccccc2)CC1 [Compound 4256, N-((7-(5-(difluoromethyl)-1,3,4-oxadiazol-2-yl)imidazo[1,2-a]pyridin-2-yl)methyl)-4-methyl-N-phenylpiperazine-1-sulfonamide] |
| > 50000 | 674 | 74.2 | CCN1CCN(S(=O)(=O)N(Cc2cn3ccc(-c4nnc(C(F)F)o4)cc3n2)c2ccccc2)CC1 [Compound 4257, N-((7-(5-(difluoromethyl)-1,3,4-oxadiazol-2-yl)imidazo[1,2-a]pyridin-2-yl)methyl)-4-ethyl-N-phenylpiperazine-1-sulfonamide] |
| > 50000 | 500 | 100 | CC(C)N1CCN(S(=O)(=O)N(Cc2cn3ccc(-c4nnc(C(F)F)o4)cc3n2)c2ccccc2)CC1 [Compound 4258, N-((7-(5-(difluoromethyl)-1,3,4-oxadiazol-2-yl)imidazo[1,2-a]pyridin-2-yl)methyl)-4-isopropyl-N-phenylpiperazine-1-sulfonamide] |
| > 50000 | 605 | 82.6 | CC(CO)N1CCN(S(=O)(=O)N(Cc2cn3ccc(-c4nnc(C(F)F)o4)cc3n2)c2ccccc2)CC1 (stereo not drawn) [Compound 4259, N-((7-(5-(difluoromethyl)-1,3,4-oxadiazol-2-yl)imidazo[1,2-a]pyridin-2-yl)methyl)-4-(1-hydroxypropan-2-yl)-N-phenylpiperazine-1-sulfonamide] |
| > 50000 | 588 | 85 | O=S(=O)(N1CCN(C2COC2)CC1)N(Cc1cn2ccc(-c3nnc(C(F)F)o3)cc2n1)c1ccccc1 [Compound 4261, N-((7-(5-(difluoromethyl)-1,3,4-oxadiazol-2-yl)imidazo[1,2-a]pyridin-2-yl)methyl)-4-(oxetan-3-yl)-N-phenylpiperazine-1-sulfonamide] |
| > 50000 | 585 | 85.5 | CC(=O)N1CCN(S(=O)(=O)N(Cc2cn3ccc(-c4nnc(C(F)F)o4)cc3n2)c2ccccc2)CC1 [Compound 4265, 4-acetyl-N-((7-(5-(difluoromethyl)-1,3,4-oxadiazol-2-yl)imidazo[1,2-a]pyridin-2-yl)methyl)-N-phenylpiperazine-1-sulfonamide] |
| > 50000 | 431 | 116 | CCC(=O)N1CCN(S(=O)(=O)N(Cc2cn3ccc(-c4nnc(C(F)F)o4)cc3n2)c2ccccc2)CC1 [Compound 4266, N-((7-(5-(difluoromethyl)-1,3,4-oxadiazol-2-yl)imidazo[1,2-a]pyridin-2-yl)methyl)-N-phenyl-4-propionylpiperazine-1-sulfonamide] |
| > 50000 | 524 | 95.5 | O=C(CO)N1CCN(S(=O)(=O)N(Cc2cn3ccc(-c4nnc(C(F)F)o4)cc3n2)c2ccccc2)CC1 [Compound 4267, N-((7-(5-(difluoromethyl)-1,3,4-oxadiazol-2-yl)imidazo[1,2-a]pyridin-2-yl)methyl)-4-(2-hydroxyacetyl)-N-phenylpiperazine-1-sulfonamide] |
